The record followed here is patent US9382208B1, “Negative allosteric modulators of metabotropic glutamate receptor 2” (Vanderbilt University, priority 2015, dated 2016).

Molecules are shown by their SMILES.

The assay deals with T1, rat mGlu2 (Rattus norvegicus, UniProt P31421).
T1 construct: expressed in transfected cells
Put plainly: mGlu2 Ca2+ flux assay. The settings on record: for IC50: Gα15 HEK293 cells stably expressing rat mGlu2, glutamate EC80 addition, read-out: rat mGlu2 IC50; for remaining activity at 30 µM: amplitude of response in the presence of 30 μM test compound as percentage of maximal response to glutamate, read-out: rat mGlu2 Glu max (%). It counts as cell-based. The protocol: Gα15 HEK293 cells stably expressing rat mGlu2 were plated in black-walled, clear-bottomed, poly-D-lysine coated 384-well plates in 20 μL of assay medium (DMEM containing 10% dialyzed FBS, 20 mM HEPES, and 1 mM sodium pyruvate) at a density of 12K cells/well. The cells were grown overnight at 37° C. in the presence of 5% CO2. The next day, medium was removed and the cells incubated with 20 μL of 2.3 μM Fluo-4, AM prepared as a 2.3 mM stock in DMSO and mixed in a 1:1 ratio with 10% (w/v) pluronic acid F-127 and diluted in assay buffer (Hank's balanced salt solution, 20 mM HEPES, and 2.5 mM probenecid) for 45 minutes at 37° C. Dye was removed, 20 μL of assay buffer was added, and the plate was incubated for 5 minutes at room temperature.
Ca^2+ flux was measured using the Functional Drug Screening System (FDSS7000, Hamamatsu, Japan). After establishment of a fluorescence baseline for about 3 seconds, the compounds of the present invention were added to the cells, and the response in cells was measured. 2.3 minutes later an EC20 concentration of the mGlu2 receptor agonist glutamate was added to the cells, and the response of the cells was measured for 1.9 minutes; an EC80 concentration of agonist was added and readings taken for an additional 1.7 minutes. All test compounds were dissolved and diluted to a concentration of 10 mM in 100% DMSO. Compounds were then serially diluted 1:3 in DMSO into 10 point concentration response curves, transferred to daughter plates, and further diluted into assay buffer to a 2× stock. Calcium fluorescence measures were recorded as fold over basal fluorescence; raw data was then normalized to the maximal response to glutamate. Antagonism of the agonist response of the mGlu2 receptor in the present invention was observed as a decrease in response to nearly maximal concentrations of glutamate in the presence of compound compared to the response to glutamate in the absence of compound.
The raw data file containing all time points was used as the data source in the analysis template. This was saved by the FDSS as a tab-delimited text file. Data were normalized using a static ratio function (F/F0) for each measurement of the total 360 values per well divided by each well's initial value. Data were then reduced to peak amplitudes (Max−Initial Min) using a time range that starts approximately 3 seconds prior to the glutamate EC80 addition and continues for approximately 90 seconds. This is sufficient time to capture the peak amplitude of the cellular calcium response. Individual amplitudes were expressed as % ECMax by multiplying each amplitude by 100 and then dividing the product by the mean of the amplitudes derived from the glutamate ECMax-treated wells. IC50 values for test compounds were generated by fitting the normalized values versus the log of the test compound concentration (in mol/L) using a 4 parameter logistic equation where none of the parameters were fixed. Each of the three values collected at each concentration of test compound were weighted evenly.
For NAMs, potency (IC50) and maximum response (% Glu Max), i.e. the amplitude of response in the presence of 30 μM test compound as a percentage of the maximal response to glutamate, are reported. […] Compounds with no measurable activity are designated as “>30,000 nM” since the top concentration of compound tested in the assay is 30 μM.

T1 sequence (P31421 19-872): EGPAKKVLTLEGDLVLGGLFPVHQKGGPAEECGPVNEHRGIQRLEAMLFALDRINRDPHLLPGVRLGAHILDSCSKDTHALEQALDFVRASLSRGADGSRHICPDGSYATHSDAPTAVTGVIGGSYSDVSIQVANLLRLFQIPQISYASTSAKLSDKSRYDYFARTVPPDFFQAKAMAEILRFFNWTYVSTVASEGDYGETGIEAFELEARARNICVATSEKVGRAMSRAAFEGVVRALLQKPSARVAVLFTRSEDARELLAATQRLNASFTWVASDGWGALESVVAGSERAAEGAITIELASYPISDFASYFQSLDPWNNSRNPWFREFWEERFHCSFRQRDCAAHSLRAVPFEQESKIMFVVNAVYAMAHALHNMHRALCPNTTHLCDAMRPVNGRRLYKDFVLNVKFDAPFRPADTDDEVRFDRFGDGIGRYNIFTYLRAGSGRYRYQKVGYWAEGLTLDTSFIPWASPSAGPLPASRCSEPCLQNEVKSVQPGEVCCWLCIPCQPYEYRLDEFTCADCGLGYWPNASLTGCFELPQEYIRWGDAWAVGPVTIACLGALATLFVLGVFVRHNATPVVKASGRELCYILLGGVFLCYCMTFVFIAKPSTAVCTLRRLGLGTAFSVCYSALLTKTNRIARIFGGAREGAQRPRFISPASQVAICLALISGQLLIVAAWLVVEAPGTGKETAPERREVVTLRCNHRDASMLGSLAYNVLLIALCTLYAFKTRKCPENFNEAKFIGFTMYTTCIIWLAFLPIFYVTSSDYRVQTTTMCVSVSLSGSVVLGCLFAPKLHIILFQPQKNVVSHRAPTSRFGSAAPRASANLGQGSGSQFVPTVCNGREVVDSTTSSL

In the case of `CC1(C)CN(Cc2ccc3c(c2)c(=O)c(C(N)=O)cn3-c2ccc(F)cc2)CCO1` [Compound 90, 6-((2,2-dimethylmorpholino)methyl)-1-(4-fluorophenyl)-4-oxo-1,4-dihydroquinoline-3-carboxamide], the IC50 worked out at 142 nM and the remaining activity at 30 µM was 2.01%.
`NC(=O)c1cn(-c2ccc(F)cc2)c2ccc(CN3CCS(=O)(=O)CC3)cc2c1=O` [Compound 84, 6-((1,1-dioxidothiomorpholino)methyl)-1-(4-fluorophenyl)-4-oxo-1,4-dihydroquinoline-3-carboxamide]: the IC50 is 1160 nM and the remaining activity at 30 µM was 2.04%.
As to `NC(=O)c1cn(-c2ccc(F)cc2)c2ccc(N3Cc4cccnc4C3)cc2c1=O` [Compound 43, 1-(4-fluorophenyl)-4-oxo-6-(5H-pyrrolo[3,4-b]pyridin-6(7H)-yl)-1,4-dihydroquinoline-3-carboxamide], the half-inhibitory concentration (IC50) was found to be 5040 nM and the remaining activity at 30 µM came to 1.85%.
The like results for `NC(=O)c1cn(-c2ccc(F)cc2)c2ccc(-c3cccnc3)cc2c1=O` [Compound 60, 1-(4-fluorophenyl)-4-oxo-6-(pyridin-3-yl)-1,4-dihydroquinoline-3-carboxamide] were, in that order, 277 nM and 1.33%.
Take `NC(=O)c1cn(-c2ccc(F)cc2)c2ccc(CCc3ccnc(C(F)(F)F)c3)cc2c1=O` [Compound 46, 1-(4-fluorophenyl)-4-oxo-6-(2-(2-(trifluoromethyl)pyridin-4-yl)ethyl)-1,4-dihydroquinoline-3-carboxamide]: the IC50 amounted to 269 nM and the remaining activity at 30 µM was determined as 0.78%.
On the same counts, the results for `Cc1ncc(OCc2ccc3c(c2)c(=O)c(C(N)=O)cn3-c2ccc(F)cc2)cn1` [Compound 35, 1-(4-fluorophenyl)-6-(((2-methylpyrimidin-5-yl)oxy)methyl)-4-oxo-1,4-dihydroquinoline-3-carboxamide] are 287 ± 51 nM and 1.71 ± 0.2%.
As for `Cc1ccc(Oc2ccc3c(c2)c(=O)c(C(N)=O)cn3-c2ccc(F)cc2)cn1` [Compound 55, 1-(4-Fluorophenyl)-6-((6-methylpyridin-3-yl)oxy)-4-oxo-1,4-dihydroquinoline-3-carboxamide], the IC50 was 1710 nM and the remaining activity at 30 µM is 1.96%.
With `Cc1ncc(Oc2ccc3c(c2)c(=O)c(C(N)=O)cn3-c2ccc(F)cc2)cn1` [Compound 57, 1-(4-fluorophenyl)-6-((2-methylpyrimidin-5-yl)oxy)-4-oxo-1,4-dihydroquinoline-3-carboxamide], the IC50 worked out at 4480 nM and the remaining activity at 30 µM came to 15.7%.
The like results for `CC(=O)N1CCN(Cc2ccc3c(c2)c(=O)c(C(N)=O)cn3-c2ccc(F)cc2)CC1` [Compound 82, 6-((4-acetylpiperazin-1-yl)methyl)-1-(4-fluorophenyl)-4-oxo-1,4-dihydroquinoline-3-carboxamide] were, in that order, 3190 nM and 2.14%.
`COC1CCN(Cc2ccc3c(c2)c(=O)c(C(N)=O)cn3-c2ccc(F)cc2)CC1` [Compound 74, 1-(4-fluorophenyl)-6-((4-methoxypiperidin-1-yl)methyl)-4-oxo-1,4-dihydroquinoline-3-carboxamide]: the IC50 was found to be 1880 nM and the remaining activity at 30 µM amounted to 1.23%.
For `NC(=O)c1cn(-c2ccc(F)cc2)c2ccc(-c3ccncc3)cc2c1=O` [Compound 63, 1-(4-fluorophenyl)-4-oxo-6-(pyridin-4-yl)-1,4-dihydroquinoline-3-carboxamide], the 50% inhibitory concentration (IC50) is 407 nM and the remaining activity at 30 µM is 0.97%.
As to `CN1CCN(Cc2ccc3c(c2)c(=O)c(C(N)=O)cn3-c2ccc(F)cc2)CC1` [Compound 87, 1-(4-fluorophenyl)-6-((4-methylpiperazin-1-yl)methyl)-4-oxo-1,4-dihydroquinoline-3-carboxamide], the IC50 was determined as 1360 nM and the remaining activity at 30 µM was determined as 0.93%.
`Cc1ncc(CCc2cc(F)c3c(c2)c(=O)c(C(N)=O)cn3-c2ccc(F)cc2)cn1` [Compound 49, 8-fluoro-1-(4-fluorophenyl)-6-(2-(2-methylpyrimidin-5-yl)ethyl)-4-oxo-1,4-dihydroquinoline-3-carboxamide]: the concentration for half-maximal inhibition (IC50) is 155 nM and the remaining activity at 30 µM was 1.53%.
Regarding `NC(=O)c1cn(-c2ccc(F)cc2)c2ccc(NCCc3cccnc3)cc2c1=O` [Compound 27, 1-(4-fluorophenyl)-4-oxo-6-((2-(pyridin-3-yl)ethyl)amino)-1,4-dihydroquinoline-3-carboxamide], the IC50 turned out to be 391 nM and the remaining activity at 30 µM worked out at 1.75%.
Regarding `C[C@@H]1CN(Cc2cc(F)c3c(c2)c(=O)c(C(N)=O)cn3-c2ccc(F)cc2)C[C@H](C)O1` [Compound 92, 6-((cis-2,6-dimethylmorpholino)methyl)-8-fluoro-1-(4-fluorophenyl)-4-oxo-1,4-dihydroquinoline-3-carboxamide], the IC50 stood at 4410 nM and the remaining activity at 30 µM was 2.23%.
`NC(=O)c1cn(-c2ccc(F)cc2)c2ccc(NCc3cccnc3)cc2c1=O` [Compound 17, 1-(4-fluorophenyl)-4-oxo-6-((pyridin-3-ylmethyl)amino)-1,4-dihydroquinoline-3-carboxamide]: the IC50 was 421 nM and the remaining activity at 30 µM was 1.05%.
As for `COc1ccc(-n2cc(C(N)=O)c(=O)c3cc(CCc4cnc(C)nc4)ccc32)c(F)c1` [Compound 13, 1-(2-fluoro-4-methoxyphenyl)-6-(2-(2-methylpyrimidin-5-yl)ethyl)-4-oxo-1,4-dihydroquinoline-3-carboxamide], the IC50 amounted to 311 nM and the remaining activity at 30 µM worked out at 1.14%.
For `CN(Cc1cccnc1)c1ccc2c(c1)c(=O)c(C(N)=O)cn2-c1ccc(F)cc1` [Compound 12, 1-(4-fluorophenyl)-6-(methyl(pyridin-3-ylmethyl)amino)-4-oxo-1,4-dihydroquinoline-3-carboxamide], the IC50 was found to be 202 ± 14 nM and the remaining activity at 30 µM amounted to 2.39 ± 0.13%.
In the case of `NC(=O)c1cn(-c2ccc(F)cc2)c2ccc(COc3ccnc(C(F)(F)F)c3)cc2c1=O` [Compound 34, 1-(4-fluorophenyl)-4-oxo-6-(((2-(trifluoromethyl)pyridin-4-yl)oxy)methyl)-1,4-dihydroquinoline-3-carboxamide], the half-inhibitory concentration (IC50) came to 534 nM and the remaining activity at 30 µM was found to be 1.97%.
For the compound `CC1CCN(C)CCN1Cc1ccc2c(c1)c(=O)c(C(N)=O)cn2-c1ccc(F)cc1` (stereo not drawn) [Compound 68, 6-((4,7-dimethyl-1,4-diazepan-1-yl)methyl)-1-(4-fluorophenyl)-4-oxo-1,4-dihydroquinoline-3-carboxamide], the 50% inhibitory concentration (IC50) worked out at 4040 nM and the remaining activity at 30 µM is 2.47%.
For the compound `NC(=O)c1cn(-c2ccc(F)cc2)c2ccc(OCc3cccnc3)cc2c1=O` [Compound 44, 1-(4-fluorophenyl)-4-oxo-6-(pyridin-3-ylmethoxy)-1,4-dihydroquinoline-3-carboxamide], the half-maximal inhibitory concentration (IC50) was determined as 1080 nM and the remaining activity at 30 µM is 1.67%.
As to `CC(Oc1ccc2c(c1)c(=O)c(C(N)=O)cn2-c1ccc(F)cc1)c1ccncc1` (stereo not drawn) [Compound 23, 1-(4-fluorophenyl)-4-oxo-6-(1-(pyridin-4-yl)ethoxy)-1,4-dihydroquinoline-3-carboxamide], the IC50 turned out to be 460 ± 62 nM and the remaining activity at 30 µM is 1.07 ± 0.13%.
In the case of `NC(=O)c1cn(-c2ccc(F)cc2)c2ccc(Oc3cncc(F)c3)cc2c1=O` [Compound 59, 1-(4-fluorophenyl)-6-((5-fluoropyridin-3-yl)oxy)-4-oxo-1,4-dihydroquinoline-3-carboxamide], the IC50 amounted to 2110 nM and the remaining activity at 30 µM is 0.44%.
Turning to `CN(Cc1cccnc1)c1cc2c(=O)c(C(N)=O)cn(-c3ccc(F)cc3)c2cc1F` [Compound 52, 7-Fluoro-1-(4-fluorophenyl)-6-(methyl(pyridin-3-ylmethyl)amino)-4-oxo-1,4-dihydroquinoline-3-carboxamide], the IC50 stood at 669 nM and the remaining activity at 30 µM amounted to 2.26%.
